Reference: patent US12667572B2, “Tricyclic compounds useful in the treatment of cancer, autoimmune and inflammatory disorders” (SCHRÖDINGER, INC., priority 2021, dated 2026)

How the values were obtained:
[1] = biological target: T1, full-length MALT1 protein His-MALT1(1-824) (Homo sapiens, UniProt Q9UDY8); experiment: MALT1 protease assay, Assay 2 (1 nM MALT1, Ac-LRSR-AMC substrate); format: biochemical; details: 1 nM MALT1, 50 μM Ac-LRSR-AMC, 2 h pre-incubation, 8 hr incubation at RT
T1 construct: full-length MALT1 protein His-MALT1(1-824); His (N); made in house; host or cells: baculovirus-infected insect cells
T1 sequence (Q9UDY8 1-824): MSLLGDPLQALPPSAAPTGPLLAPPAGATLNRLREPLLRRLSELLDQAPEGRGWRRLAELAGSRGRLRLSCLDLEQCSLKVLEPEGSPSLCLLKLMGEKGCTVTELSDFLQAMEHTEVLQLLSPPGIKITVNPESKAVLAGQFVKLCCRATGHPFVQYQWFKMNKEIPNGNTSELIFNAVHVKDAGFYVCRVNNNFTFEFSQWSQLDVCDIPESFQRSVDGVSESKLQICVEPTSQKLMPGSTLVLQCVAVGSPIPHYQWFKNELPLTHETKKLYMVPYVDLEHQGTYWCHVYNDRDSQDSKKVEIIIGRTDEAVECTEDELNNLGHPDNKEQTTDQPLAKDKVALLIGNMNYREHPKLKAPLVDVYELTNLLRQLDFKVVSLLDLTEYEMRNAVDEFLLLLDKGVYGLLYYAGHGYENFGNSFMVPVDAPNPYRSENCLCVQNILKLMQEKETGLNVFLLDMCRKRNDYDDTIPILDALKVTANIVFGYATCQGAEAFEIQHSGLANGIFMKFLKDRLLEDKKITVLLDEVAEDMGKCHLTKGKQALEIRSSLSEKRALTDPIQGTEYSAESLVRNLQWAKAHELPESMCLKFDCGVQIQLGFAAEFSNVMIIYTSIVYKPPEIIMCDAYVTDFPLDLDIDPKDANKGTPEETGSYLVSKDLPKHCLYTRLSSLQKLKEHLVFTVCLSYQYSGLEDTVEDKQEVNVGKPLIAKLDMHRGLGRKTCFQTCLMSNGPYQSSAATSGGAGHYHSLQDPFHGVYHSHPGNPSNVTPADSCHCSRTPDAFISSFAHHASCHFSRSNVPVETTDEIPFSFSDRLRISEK
Procedure, shortened: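 Compounds (0.1% DMSO final) sat 2 h at RT with insect-cell-expressed His-MALT1(1-824), in 50 mM Tris pH 7.5, 600 mM sodium citrate, 1 mM DTT, 1 mM EDTA, 0.05% BSA. Cleavage of 50 μM Ac-LRSR-AMC (Km ~100 μM) ran 8 h at RT, read as AMC fluorescence. IC50 and Hill coefficient fitted to % remaining activity.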

[2] = tested on: IL10 secretion in OCI-LY10 cells; experiment: Human IL10 secretion assay, Assay 2 (MSD); format: cell-based; details: Homo sapiens, 24 h incubation, Meso Scale Discovery, read-out: IL-10 Secretion IC50 [nM] Assay 2
Experimental: IL10 is one of the cytokines that are regulated via activation of NF-kB signaling. For example, in ABC-DLBCL cell lines, the activated NF-kB signaling leads to increased IL10 secretion. Inhibition of NF-kB signaling has been shown leading to decreased IL10 secretion.
Assay 2: OCI-LY10 cells were seeded in IMEM supplemented with 20% fetal bovine serum at 4.8×10^5 cells per 160 μL per well in 96-well V-bottom cell culture plates (corning, 3894), treated with 120 nL of 3-fold serial compound dilutions, starting at 4 mM. The final vehicle concentration was 0.075% DMSO in all wells. After a 24 h incubation, human IL-10 precoated plates (Meso Scale Discovery) were washed 3 times with PBST, and 50 μL culture medium was aspirated into the MSD plate and incubated at 4° C. overnight. The supernatant was then discarded, and the wells were washed 3 times with PB ST. SULFO-TAG Anti-human IL-10 Antibody (50×) was diluted 50-fold according to the Meso Scale Protocol, then 25 μL of SULFO-TAG Anti-human IL-10 Antibody (1×) was added. After 2 h of incubation at RT, the supernatant was discarded, and the well was washed 3 times with PBST. 2×read buffer was added and the signal was read on an MSD Sector S600. The effect of a particular compound on IL10 secretion is shown relative to the effect of DMSO; set as 100%. IC50 values (nM) were determined using 4-parametric curve-fitting.

| Structure (SMILES) | IC50 [1] | IC50 [2] |
| --- | --- | --- |
| CC1(C)CC(C(=O)Nc2cnc(-n3ncc(C4COC4)n3)c(Cl)c2)c2cnc3cc(Cl)nn3c21 (single isomer, unassigned) [Example 111, 2-chloro-N-(5-chloro-6-(4-(oxetan-3-yl)-2H-1,2,3-triazol-2-yl)pyridin-3-yl)-8,8-dimethyl-7,8-dihydro-6H-cyclopenta[e]pyrazolo[1,5-a]pyrimidine-6-carboxamide] | < 10 nM | 10 to 100 nM |
| O=C(Nc1cnc(-n2nccn2)c(Cl)c1)[C@H]1CC2(CCC2)c2c1cnc1cc(F)nn21 (single isomer, unassigned) [Example 108, N-(5-chloro-6-(2H-1,2,3-triazol-2-yl)pyridin-3-yl)-2′-fluoro-6′,7′-dihydrospiro[cyclobutane-1,8′-cyclopenta[e]pyrazolo[1,5-a]pyrimidine]-6′-carboxamide] | < 10 nM | 100 to 1000 nM |
| N#Cc1cc(NC(=O)C2CC3(CCC3)c3c2cnc2cc(F)nn32)cnc1OC(F)F (single isomer, unassigned) [Example 103, N-(5-cyano-6-(difluoromethoxy)pyridin-3-yl)-2′-fluoro-6′,7′-dihydrospiro[cyclobutane-1,8′-cyclopenta[e]pyrazolo[1,5-a]pyrimidine]-6′-carboxamide] | < 10 nM | 100 to 1000 nM |
| CC1(C)C[C@H](C(=O)Nc2cnc(OC(F)F)c(Cl)c2)c2cnc3cc(F)nn3c21 (single isomer, unassigned) [Example 77, N-(5-chloro-6-(difluoromethoxy)pyridin-3-yl)-2-fluoro-8,8-dimethyl-7,8-dihydro-6H-cyclopenta[e]pyrazolo[1,5-a]pyrimidine-6-carboxamide] | < 10 nM | 10 to 100 nM |
| O=C(Nc1cnc(-n2nccn2)c(Cl)c1)C1CC2(CC2)c2c1cnc1cc(F)nn21 (single isomer, unassigned) [Example 95, N-(5-chloro-6-(2H-1,2,3-triazol-2-yl)pyridin-3-yl)-2-fluoro-6,7-dihydrospiro[cyclopenta[e]pyrazolo[1,5-a]pyrimidine-8,1′-cyclopropane]-6-carboxamide] | 10 to 100 nM | 100 to 1000 nM |
| C[C@H](O)c1cnn(-c2ncc(NC(=O)[C@H]3CC4(CCC4)c4c3cnc3cc(Cl)nn43)cc2Cl)n1 (single isomer, unassigned) [Example 158] | 10 to 100 nM | 100 to 1000 nM |
| Cc1cc2cc(F)c3c(n2n1)C(C)(C)CC3C(=O)Nc1cnc(-n2nccn2)c(Cl)c1 (single isomer, unassigned) [Example 157, N-(5-chloro-6-(2H-1,2,3-triazol-2-yl)pyridin-3-yl)-5-fluoro-2,8,8-trimethyl-7,8-dihydro-6H-cyclopenta[e]pyrazolo[1,5-a]pyridine-6-carboxamide] | 10 to 100 nM | ≥ 1000 nM |
| C[C@@]1(C(F)(F)F)C[C@H](C(=O)Nc2cnc(-n3nccn3)c(C(F)(F)F)c2)c2cnc3cc(Cl)nn3c21 (single isomer, unassigned) [Example 54, N-(6-(2H-1,2,3-triazol-2-yl)-5˜(trifluoromethyl)pyridin-3-yl)-2-chloro-8-methyl-8-(trifluoromethyl)-7,8-dihydro-6H-cyclopenta[e]pyrazolo[1,5-a]pyrimidine-6-carboxamide] | < 10 nM | 100 to 1000 nM |
| CC1(C)CC(C(=O)Nc2cnc(OC(F)F)c(Cl)c2)c2cnn3cc(Cl)nc3c21 (single isomer, unassigned) [Example 191, 2-chloro-N-(5-chloro-6-(difluoromethoxy)pyridin-3-yl)-9,9-dimethyl-8,9-dihydro-7H-cyclopenta[d]imidazo[1,2-b]pyridazine-7-carboxamide] | < 10 nM | 100 to 1000 nM |
| Cc1cn2ncc3c(c2n1)C(C)(C)CC3C(=O)Nc1cnc(-n2nccn2)c(Cl)c1 (single isomer, unassigned) [Example 189, N-(5-chloro-6-(2H-1,2,3-triazol-2-yl)pyridin-3-yl)-2,9,9-trimethyl-8,9-dihydro-7H-cyclopenta[d]imidazo[1,2-b]pyridazine-7-carboxamide] | < 10 nM | 100 to 1000 nM |
| CC1(C)CC(C(=O)Nc2cnc(-n3nccn3)c(C(F)F)c2)c2cnc3cc(Cl)nn3c21 (single isomer, unassigned) [Example 47, 2-chloro-N-(5-(difluoromethyl)-6-(2H-1,2,3-triazol-2-yl)pyridin-3-yl)-8,8-dimethyl-7,8-dihydro-6H-cyclopenta[e]pyrazolo[1,5-a]pyrimidine-6-carboxamide] | < 10 nM | 100 to 1000 nM |
| O=C(Nc1cnc(-n2nccn2)c(C(F)(F)F)c1)C1CC2(CC2)c2c1cnc1cc(Cl)nn21 (single isomer, unassigned) [Example 149, N-(6-(2H-1,2,3-triazol-2-yl)-5-(trifluoromethyl)pyridin-3-yl)-2-chloro-6,7-dihydrospiro[cyclopenta[e]pyrazolo[1,5-a]pyrimidine-8,1′-cyclopropane]-6-carboxamide] | 10 to 100 nM | 100 to 1000 nM |
| CC1(C)CC(C(=O)Nc2cnc(OC(F)F)c(C#N)c2)c2cnc3cc(Cl)nn3c21 (single isomer, unassigned) [Example 79, 2-chloro-N-(5-cyano-6-(difluoromethoxy)pyridin-3-yl)-8,8-dimethyl-7,8-dihydro-6H-cyclopenta[e]pyrazolo[1,5-a]pyrimidine-6-carboxamide] | < 10 nM | 10 to 100 nM |
| C[C@]1(C(F)(F)F)C[C@H](C(=O)Nc2cnc(-n3nccn3)c(C(F)F)c2)c2cnc3cc(Cl)nn3c21 (single isomer, unassigned) [Example 66, 2-chloro-N-(5-(difluoromethyl)-6-(2H-1,2,3-triazol-2-yl)pyridin-3-yl)-8-methyl-8-(trifluoromethyl)-7,8-dihydro-6H-cyclopenta[e]pyrazolo[1,5-a]pyrimidine-6-carboxamide] | 10 to 100 nM | 100 to 1000 nM |
| O=C(Nc1cnc(-n2nccn2)c(Cl)c1)C1CC2(CC2)c2c1cnc1cc(Cl)nn21 (single isomer, unassigned) [Example 97, 2-chloro-N-(5-chloro-6-(2H-1,2,3-triazol-2-yl)pyridin-3-yl)-6,7-dihydrospiro[cyclopenta[e]pyrazolo[1,5-a]pyrimidine-8,1′-cyclopropane]-6-carboxamide] | 10 to 100 nM | 100 to 1000 nM |
| CC1(C)CC(C(=O)Nc2cnc(-n3nccn3)c(C#N)c2)c2cnc3cc(Cl)nn3c21 (single isomer, unassigned) [Example 107, 2-chloro-N-(5-cyano-6-(2H-1,2,3-triazol-2-yl)pyridin-3-yl)-8,8-dimethyl-7,8-dihydro-6H-cyclopenta[e]pyrazolo[1,5-a]pyrimidine-6-carboxamide] | < 10 nM | 10 to 100 nM |
